Experiments:
[1] = system: Serum induced (hypertrophied) Myocytes proteins; assay: Solid phase screening of small molecule biaryl Library 7 with labeled myocyte proteins; type: binding, neonatal Wistar rats
basal myocyte protein = assay: Solid phase screening of Library 5 with labeled myocyte protein; type: binding, neonatal Wistar rats; details: Normal Myocytes
Method: Myocytes were prepared from 1 to 5 day old neonatal Wistar rats (University of Copenhagen) according to literature procedure described in Busk et al., 2002, Cardiovasc. Res., 56: 64-75 and plated into eight P10 culture plates at 6 million cells/plate.
Protein was extracted from myocytes prepared as described above for Example 9, using a new procedure modified from existing protocols, primarily: Arrott, et al., 1998, Anal Biochem. 258: 1-18. The media was removed from plates and adhered cells were treated for 10 minutes with ice cold phosphate buffer (0.25 mL, 10 mM, pH 7.5, augmented with 0.15 M NaCl 60 mM Benzamidine HCl, 5 mM EDTA, 10 μg/n E-64, 10 μg/mL Leu-peptin, 10 μg/mL Pepstatin A, and 1 mM PMSF). The cells were scraped off the plates and then lysed (on ice) in a sonicator (2×) using 10 seconds off/10 seconds on cycles.
The resulting suspension was augmented with CHAPS, DTT, and urea to a final concentration of CHAPS (1% w/v), DTT (5 mM), and urea (8 M). After 10-15 minutes on ice, the solution was centrifuged for 10 minutes at 15,000 rpm at 4° C. The supernatant was removed and protein content quantified using the NanoOrange Protein test (Molecular Probes, Eugene, Oreg.): Total protein recovered: 70.5 μg for PE-treated cells and 60 μg for basal cells.
Fluorescent dye Oregon Green 514 (OR) (Molecular Probes) was used to label the healthy/basal cells while Rhodamine Red (RR) (Molecular Probes) was used to label the PE-treated cells. The labeling procedures were carried out according to the manufacturer's protocol. […]
(§1) A typical analysis employed 100-300 laser shots. […] The possible identity of the ligand was determined (Narrowed down) by comparing the recorded mass of the ligand with the masses of all possible compounds formed in the library. […]
(§2) Isolated proteins that bound to specific ligands were identified using peptide mass fingerprinting. Mass spectra were recorded on a Bruker Reflex m MALDI time-of-flight mass spectrometer (Bruker-Daltonics, Bremen, Germany) operated in the positive reflectron mode using delayed extraction. […]

Phosphomannose isomerase = target: T1, Phosphomannose isomerase (Candida albicans, UniProt P34948); details: in Candida; Wells et al, 1996; cited from earlier work
T1 sequence (P34948 1-441): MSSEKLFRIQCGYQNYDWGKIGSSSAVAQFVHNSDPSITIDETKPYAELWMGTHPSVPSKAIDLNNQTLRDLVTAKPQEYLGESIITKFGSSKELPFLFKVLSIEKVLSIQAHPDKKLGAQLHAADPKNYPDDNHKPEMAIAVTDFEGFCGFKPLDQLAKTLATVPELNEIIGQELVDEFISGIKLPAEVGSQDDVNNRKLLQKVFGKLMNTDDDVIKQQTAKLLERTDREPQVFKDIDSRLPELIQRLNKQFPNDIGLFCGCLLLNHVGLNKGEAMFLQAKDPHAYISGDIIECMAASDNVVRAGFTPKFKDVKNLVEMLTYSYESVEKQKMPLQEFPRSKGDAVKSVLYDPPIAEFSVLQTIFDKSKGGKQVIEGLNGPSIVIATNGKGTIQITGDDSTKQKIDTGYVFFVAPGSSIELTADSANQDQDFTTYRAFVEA

[2] = target: isoleucine tRNA synthetase (Escherichia coli, UniProt P00956); details: Merck Manual; cited from earlier work
isoleucine tRNA synthetase, sequence (P00956 whole entry): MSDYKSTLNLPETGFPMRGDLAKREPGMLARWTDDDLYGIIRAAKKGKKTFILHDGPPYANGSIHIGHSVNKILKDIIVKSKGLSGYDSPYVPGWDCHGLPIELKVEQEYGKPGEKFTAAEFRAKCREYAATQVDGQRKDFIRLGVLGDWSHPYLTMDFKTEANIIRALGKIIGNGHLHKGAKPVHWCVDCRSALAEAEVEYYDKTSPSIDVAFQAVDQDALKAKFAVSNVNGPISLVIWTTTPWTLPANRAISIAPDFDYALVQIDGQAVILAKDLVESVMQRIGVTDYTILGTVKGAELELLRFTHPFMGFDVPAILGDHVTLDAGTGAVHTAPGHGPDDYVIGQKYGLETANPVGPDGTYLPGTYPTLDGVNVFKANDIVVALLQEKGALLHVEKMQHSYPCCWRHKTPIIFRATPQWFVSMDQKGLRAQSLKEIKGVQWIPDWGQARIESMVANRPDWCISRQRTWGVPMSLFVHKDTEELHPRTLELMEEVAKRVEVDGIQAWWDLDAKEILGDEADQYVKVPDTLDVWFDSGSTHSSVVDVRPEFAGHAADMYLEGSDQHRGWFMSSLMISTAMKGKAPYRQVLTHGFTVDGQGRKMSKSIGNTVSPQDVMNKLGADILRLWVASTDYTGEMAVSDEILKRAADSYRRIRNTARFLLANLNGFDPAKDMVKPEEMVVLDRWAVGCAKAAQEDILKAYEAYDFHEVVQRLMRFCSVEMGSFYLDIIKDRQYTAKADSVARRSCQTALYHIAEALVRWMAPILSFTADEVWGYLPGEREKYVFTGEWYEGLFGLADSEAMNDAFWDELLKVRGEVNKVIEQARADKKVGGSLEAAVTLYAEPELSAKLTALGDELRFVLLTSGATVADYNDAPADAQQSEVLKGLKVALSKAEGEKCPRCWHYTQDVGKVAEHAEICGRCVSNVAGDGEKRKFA

[3] = system: normal porcine macrophage proteins; assay: Solid phase screening of Library 4 with labeled porcine viral and macrophage proteins; type: binding; details: Normal Macrophages
Excerpt: Alternatively, the fluorescent ligand library beads containing bound protein obtained as described in Examples 47, 48, 49 and 51 were sorted using a COPAS (250) NF Bead Sorter (Union Biometrica, Somerville, Mass.) equipped with a dual detector. Both the cyanine dyes used in the labeling procedure, namely Cy 2 (emission wavelength—510 nm) and Cy 3 (emission wavelength—570 nm) were simultaneously excited at […] The bead selection window was then set-up such that all beads containing significant green fluorescence and no red flourescence were isolated. The unselected beads were then resorted to obtain beads containing red fluorescence (proteins from basal cells). […]
as §1, §2

Myocytes = assay: Proliferation of myocytes with phenylephrine (in vitro model of hypertrophy); type: cell-based, neonatal Wistar rats; details: 10 μM phenylephrine (PE); cells grown for two more days

COc1ccc(Br)c(OC)c1C(=O)NC1(C(=O)O)CCCCC1
Identified Protein(s) [1]: Translin-associated protein X (Q99598); Hypothetical Protein ORF-1137 (P11260); Integrin alpha-1 (Laminin and collagen receptor VLA-1,CD49a) (P56199_.

O=C1c2ccccc2[C@@H]2N(Cc3ccc(O)cc3)C[C@@H](CN(C(=O)CCc3ccccc3)C3(C(=O)O)CCCC3)N12 [HY4]
Identified Protein(s) (basal myocyte protein): NADH-ubiquinone oxidoreductase B14 subunit (Q9CQZ5).

Nc1ccc(S(=O)(=O)Nc2ncccn2)cc1 [sulfadiazene]
inhibition of phosphomannose isomerase (Phosphomannose isomerase): inhibited

CC(CCc1ccccc1)N1C[C@@H](CN2Cc3ccccc3CC2C(=O)O)N2C(=O)c3ccccc3[C@H]12 (stereo partly shown) [HY5]
Identified Protein(s) (basal myocyte protein): Myosin Va (Myosin 5A, dilute myosin heavy chain, non muscle (Q9Y411).

O=C(O)c1ccc(CN2C[C@@H](CN(C(=O)c3ccccc3)C3(C(=O)O)CCCC3)N3C(=O)c4ccccc4[C@H]23)cc1 [HY3]
Identified Protein(s) (basal myocyte protein): NADH-ubiquinone oxidoreductase B14 subunit (Q9CQZ5).

C/C(=C\C(=O)OCCCCCCCCC(=O)O)C[C@@H]1OC[C@H](C[C@@H]2O[C@H]2[C@@H](C)[C@H](C)O)[C@@H](O)[C@H]1O [Mupirocin]
inhibition of isoleucine tRNA synthetase [2]: inhibits the enzyme isoleucine tRNA synthetase

O=C1NCCC[C@@H](C(=O)N[C@@H](CCc2ccccc2)C(=O)O)N1 [HY2]
Identified Protein(s) [3]: Protein kinase byr2 (Protein kinase ste8) (MAP kinase) (P28829); Similar to protein kinase 2 (Testicular) (Q885R6); Thiamine-triphosphatase (Q8CgV7).

CNC[C@H](O)c1cccc(O)c1 [PE, phenylephrine]
cell size at time of harvest (Myocytes): significantly enlarged

O=C(O)CNC(=O)c1ccc(-c2ccco2)o1
Identified Protein(s) [1]: Serine-threonine kinase (gi 474842); Hemopexin precur- sor (Beta-1B-glycoprotein) (P02790); 116 kDa U5 small nuclear ribonucleoprotein component (O08810).

C[C@H](NC(=O)[C@@H]1CCCCNC(=O)N1)C(=O)O [HY1]
Identified Protein(s) [3]: Protein kinase C binding protein 1 also contains a zinc finger domain with protein 8) (Q9U1U4); Guanine nucle- otide-binding protein G(S), alpha subunit (Adenylate cy- clase-stimulating G alpha protein) (P048949).

— US20060257875A1, “Affinity screening using "one-bead-one-compound" libraries” (Carlsberg A/S, priority 2003, published 2006)
